# Target: T1, CCR2 (Homo sapiens, UniProt P41597)
# T1 construct: Membranes were prepared from THP-1 cells; endogenous in cells; host or cells: THP-1 (human acute monocytic leukaemia cells), membrane preparation
# Experiment: CCR2 receptor membrane binding assay ([125I]MCP-1, THP-1 cell membranes, SPA beads)
# Conditions: THP-1 membranes, [125I]MCP-1, bound radioactivity determined after 8 h; read-out: hKi
# Protocol: The above exemplary substances have been tested for binding to CCR2 using a binding assay as outlined herein below:
# THP-1 cells (human acute monocytic leukaemia cells) were cultured under standardized conditions at 37° C. and 5% CO2 in a humidified incubator. THP-1 cells were cultivated in RPMI 1640 medium (Gibco 21875) containing 1% MEM-NEAA (Gibso 11140) 2 mM L-glutamine, 1.5 g/L sodium bicarbonate, 4.5 g/L glucose, 10 mM HEPES and 1.0 mM sodium pyruvate, 90%; 10% fetal calf serum (FCS Gibco 10500-064).
# Membranes were prepared from THP-1 cells. THP-1 cells were centrifuged at 300×g at 4° C. for 10 min. The cell pellet was resuspended in Phosphate Buffer Saline (PBS, including 10 μM Pefabloc and a protease inhibitor mix ‘complete’, Boehringer Mannheim (1 tablet/50 ml)), to a concentration of […]. The membrane preparation was performed by disrupting the cells by nitrogen […] (at 50 bar, for 1 h) in a “Nitrogen Bombe” (Parr Instrument). Cell debris was removed by centrifugation (800×g at 4° C., 1 min). The supernatant was centrifuged at 80000×g, 4° C. for 30 min to sediment the cell membranes. Usually 50 mg of protein (Bradford assay) were yielded from 1×10E9 cells. The membranes were resuspended in 25 mM HEPES, 25 mM MgCl2, 1 mM CaCl2, 10% Glycerine for storage in aliquots at −80° C. in 25 mM HEPES, 25 mM MgCl2, 1 mM CaCl2, 10% Glycerine and stored at −80° C.
# Receptor Membrane Binding Assay:
# Perkin Elmer NEX 332 Jod 125 MCP-1, Stock: 2200 Ci/mmol solved in […] assay buffer, stored at −20° C. THP-1 membrane were adjusted with 25 mM HEPES, pH 7.2; 5 mM MgCl2; 0.5 mM CaCl2; 0.2% BSA assay buffer to a concentration of 2.5 μg/15 μl. Amersham Biosciences PVT-WGA Beads (RPNQ0001) were adjusted with assay buffer to a concentration of 0.24 mg/30 μl. For preparation of the membrane-bead-suspension membranes and beads were incubated for 30 min at RT under rotation (60 rpm) with a ratio of 1:2. Test compounds dissolved in 100% DMSO to a concentration of 10 mM and are further diluted with 100% DMSO to 1 mM. All additional compound dilutions were obtained with assay buffer, final 1% DMSO. Compounds, membrane-bead-suspension and [^125I]MCP-1 (ca. 25000 cpm/10 μl) were incubated. Bound radioactivity was determined by scintillation counter after 8 h. Determination of affinity of test compounds (dissociation constant hKi) is calculated by iterative fitting of experimental data using the “easy sys” program, which is based on law of mass action (Schittkowski K. (1994), Numerische Mathematik, Vol. 68, 129-142).
# T1 sequence (P41597 whole entry): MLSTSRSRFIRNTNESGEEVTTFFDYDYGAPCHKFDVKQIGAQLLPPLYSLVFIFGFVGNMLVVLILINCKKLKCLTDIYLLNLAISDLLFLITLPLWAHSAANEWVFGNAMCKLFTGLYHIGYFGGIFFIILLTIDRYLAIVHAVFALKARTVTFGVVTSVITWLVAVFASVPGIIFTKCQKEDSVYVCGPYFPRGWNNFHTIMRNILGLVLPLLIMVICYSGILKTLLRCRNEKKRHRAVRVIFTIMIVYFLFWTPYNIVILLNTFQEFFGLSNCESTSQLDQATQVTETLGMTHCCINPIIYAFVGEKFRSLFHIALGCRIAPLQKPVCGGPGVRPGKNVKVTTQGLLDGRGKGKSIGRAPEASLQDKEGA
row,Compound,Ki
1,Cc1c(C(=O)N2CCC(N3CCC(NS(C)(=O)=O)CC3)CC2)ncnc1N1CCc2ccc(C(F)(F)F)cc2C1 [Example 37],18 nM
2,COc1c(C(=O)N2CCC(N3CCC(N(C)S(C)(=O)=O)CC3)CC2)ncnc1N1CCc2ccc(OC(F)(F)F)cc2C1 [Example 69],62 nM
3,COC1COCCC1NC1CCN(C(=O)c2ncnc(N3CCC4(CC3)CC(=O)c3cc(Br)ccc3O4)c2C)CC1 (centres unmarked) [Example 62i],184 nM
4,CO[C@@H]1COCC[C@@H]1NC1CCN(C(=O)c2ncnc(N3CCc4ccc(OC(F)(F)F)cc4C3)c2C)CC1 [Example 65],16 nM
5,COC1COCCC1NC1CCN(C(=O)c2ncnc(N3CCC(c4ccccc4C(F)(F)F)C3)c2C)CC1 (centres unmarked) [Example 49],161 nM
6,COC1COCCC1NC1CCN(C(=O)c2ncnc(N3CCc4ncc(Br)cc4C3)c2C)CC1 (centres unmarked) [Example 40],304 nM
7,CO[C@H]1COCC[C@H]1NC1CCN(C(=O)c2ncnc(N3CCc4ccc(Br)cc4C3)c2C)CC1 [Example 69z],13 nM
8,COC1COCCC1NC1CCN(C(=O)c2ncnc(N3CCC(c4ccccc4C(F)(F)F)CC3)c2C)CC1 (centres unmarked) [Example 29],241 nM
9,CO[C@H]1COCC[C@H]1NC1CCN(C(=O)c2ncnc(N3CCc4ccc(C(F)(F)F)cc4C3)c2C)CC1 [Example 64],13 nM
10,CO[C@@H]1COCC[C@@H]1NC1CCN(C(=O)c2ncnc(N3CCC4(CCc5cc(Br)ccc5O4)CC3)c2C)CC1 [Example 62am],12 nM
11,COc1c(C(=O)N2CCC(N[C@@H]3CCOC[C@@H]3OC)CC2)ncnc1N1CCc2ccc(OC(F)(F)F)cc2C1 [Example 69c],28 nM
12,COC1COCCC1NC1CCN(C(=O)c2ncnc(N3CCN(c4ncnc5scc(C)c45)CC3)c2C)CC1 (centres unmarked) [Example 62r],411 nM
13,COC1COCCC1NC1CCN(C(=O)c2ncnc(N3CCCC(c4cccc(F)c4)C3)c2C)CC1 (centres unmarked) [Example 12],1100 nM
14,CO[C@@H]1COCC[C@@H]1NC1CCN(C(=O)c2ncnc(N3COc4ccc(C(F)(F)F)cc4C3)c2C)CC1 [Example 69e],1 nM
15,COC1COCCC1NC1CCN(C(=O)c2ncnc(N3CCn4cc(C(F)(F)F)nc4C3)c2C)CC1 (centres unmarked) [Example 62ac],1000 nM
16,Cc1c(C(=O)N2CCC(N3CCC(N(C)S(C)(=O)=O)CC3)CC2)ncnc1N1CCC(c2ccccc2C(F)(F)F)CC1 [Example 25],657 nM
17,Cc1c(C(=O)N2CCC(N3CCCC3)CC2)ncnc1N1CCc2ccc(C(F)(F)F)cc2C1 [Example 73],52 nM
18,COC1COCCC1NC1CCN(C(=O)c2ncnc(N3CCN(c4ccc5c(c4)OCO5)CC3)c2C)CC1 (centres unmarked) [Example 62q],780 nM
19,COC1COCCC1NC1CCN(C(=O)c2ncnc(N3CCN(c4ccccc4C(F)(F)F)CC3)c2C)CC1 (centres unmarked) [Example 62z],30 nM

row,Compound,Ki
1,Cc1c(C(=O)N2CCC(N3CCC(N(C)S(C)(=O)=O)CC3)CC2)ncnc1N1CCC(c2cccc(Cl)c2)CC1 [Example 27],661 nM
2,COC1COCCC1NC1CCN(C(=O)c2ncnc(N3CCN(c4cc(Cl)cc(Cl)c4)CC3)c2C)CC1 (centres unmarked) [Example 62t],17 nM
3,COC1COCCC1NC1CCN(C(=O)c2ncnc(N3CCC(c4ccccc4)CC3)c2C)CC1 (centres unmarked) [Example 16],1510 nM
4,CO[C@@H]1COCC[C@@H]1NC1CCN(C(=O)c2ncnc(N3CCc4cc(C(F)(F)F)ccc4C3)c2C)CC1 [Example 69p],6 nM
5,COC1COCCC1NC1CCN(C(=O)c2ncnc(N3CCC(c4cccc(C(F)(F)F)c4)CC3)c2C)CC1 (centres unmarked) [Example 42],230 nM
6,Cc1c(C(=O)N2CCN(C(C)C)CC2)ncnc1N1CCc2ccc(C(F)(F)F)cc2C1 [Example 71],2100 nM
7,COC1COCCC1NC1CCN(C(=O)c2ncnc(N3CCCc4ccccc4C3)c2C)CC1 (centres unmarked) [Example 58],4240 nM
8,Cc1c(C(=O)N2CCC(N3CCC(N(C)S(C)(=O)=O)CC3)CC2)ncnc1N1CCC(c2ccc(C(F)(F)F)cc2)CC1 [Example 17],1050 nM
9,CO[C@@H]1COCC[C@@H]1NC1CCN(C(=O)c2ccnc(N3CCc4ccc(C(F)(F)F)cc4C3)c2C)CC1 [Example 69a],30 nM
10,COC1COCCC1NC1CCN(C(=O)c2ncnc(N3CCN(c4ccc(C(F)(F)F)cn4)CC3)c2C)CC1 (centres unmarked) [Example 56],1020 nM
11,CO[C@H]1COCC[C@H]1NC1CCN(C(=O)c2nc(C3CC3)nc(N3CCc4ccc(C(F)(F)F)cc4C3)c2C)CC1 [Example 69q],0.7 nM
12,COC1COCCC1NC1CCN(C(=O)c2ncnc(N3Cc4ccc(C(F)(F)F)cc4C3)c2C)CC1 (centres unmarked) [Example 43],49 nM
13,Cc1c(C(=O)N2CCC(N3CCC(N(C)S(C)(=O)=O)CC3)CC2)ncnc1-n1ccc2cc(C(F)(F)F)ccc21 [Example 69g],1300 nM
14,COC1COCCC1NC1CCN(C(=O)c2ncnc(N3CCCN(c4ccccc4C)CC3)c2C)CC1 (centres unmarked) [Example 62d],305 nM
15,COc1nc(C(=O)N2CCC(NC3CCOCC3)CC2)c(C)c(N2CCc3ccc(C(F)(F)F)cc3C2)n1 [Example 69w],5 nM
16,COC1COCCC1NC1CCN(C(=O)c2ncnc(N3CCC4(CC3)CC(=O)c3ccccc3O4)c2C)CC1 (centres unmarked) [Example 62h],983 nM
17,COC1COCCC1NC1CCN(C(=O)c2ncnc(N3CCOC(c4ccccc4)C3)c2C)CC1 (centres unmarked) [Example 5],4170 nM
18,Cc1c(C(=O)N2CCC(N3CCC(N(C)S(C)(=O)=O)CC3)CC2)ncnc1N1CCC(c2ccc(Cl)cc2)CC1 [Example 26],1970 nM
19,COC1COCCC1NC1CCN(C(=O)c2ncnc(N3CCC(c4cccc(C(F)(F)F)c4)C3)c2C)CC1 (centres unmarked) [Example 52],270 nM

# — patent US8877745B2, “CCR2 receptor antagonists, method for producing the same, and use thereof as medicaments” (Boehringer Ingelheim International GmbH, priority 2010, dated 2014)
